This note sets out measurements from patent US10865216B2, “Tricyclic Gyrase inhibitors” (MERCK SHARP & DOHME CORP., priority 2012, dated 2020).

Values after ≈ are worked out from the molar mass of the structure shown. Read-outs that look alike come from different tables or passages of the source.

Holding throughout (type): cell-based
One experiment deals with S. aureus ATCC 13709. Put plainly: MIC, S. aureus ATCC 13709. The note with it: for SA MIC: Table 17, comparative, new species of R2; for Sa MIC: Table 10; for MIC: Staphylococcus aureus.
The subject of another experiment is S. pneumoniae ATCC 51916. Put plainly: MIC, S. pneumoniae ATCC 51916. As to conditions: for Spn52 MIC: Table 17, comparative, Spn52 not defined; for Spn MIC / MIC: Table 10, Spn = S. pneumoniae; for MIC: Streptococcus pneumoniae, ATCC51916.
A further experiment concerns P. aeruginosa ATCC 15692. Put plainly: MIC, P. aeruginosa ATCC 15692. The note with it: for PA MIC: Table 17, comparative, new species of R2; for Pa MIC / MIC: Table 10, Pa = P. aeruginosa; for MIC: Pseudomonas aeruginosa, ATCC15692.
In another experiment the test system is E. coli ATCC 25922. Put plainly: MIC, E. coli ATCC 25922. As to conditions: for Ec MIC: Table 10; for MIC: Escherichia coli.
For the next experiment, the system named is A. baumannii ATCC 19606. Description: MIC, A. baumannii ATCC 19606. As to conditions: Table 10, Ab = A. baumannii, strain not stated; for MIC: Acinetobacter baumannii, ATCC19606.
Experiment [1] has as its system K. pneumoniae ATCC 700603. Put plainly: MIC, K. pneumoniae ATCC 700603. As to conditions: Table 10, Kpn = K. pneumoniae; for MIC: Klebsiella pneumoniae, ATCC700603.
Another experiment relates to Y. pestis CO92 pgm-. As to conditions: Table 10.
Experiment [2] has as its system B. thailandensis ATCC E264. Description: microbe, parasite or virus in culture.
The subject of experiment [3] is F. tularensis holarctica LVS. Put plainly: microbe, parasite or virus in culture. The note with it: Table 10; Ft = F. tularensis, strain not stated.
[4] abbreviates: S. aureus, Alamar Blue read after overnight incubation at 35° C.
Setting [5] is: E. coli, Alamar Blue read after overnight incubation at 35° C.
The mark [6] stands for this setting: Ec = E. coli, strain not stated.
Where [7] appears, read: ATCC13709, S. aureus, Alamar Blue read after overnight incubation at 35° C., read-out: MIC Sa.
Setting [8] is: ATCC13709, Table 10, Sa = S. aureus, read-out: Sa MIC.
[9] abbreviates: ATCC25922, E. coli, Alamar Blue read after overnight incubation at 35° C., read-out: MIC Ec.
Setting [10] is: ATCC25922, Table 10, Ec = E. coli, strain not stated, read-out: Ec MIC.

Regarding `CNc1cc(F)cc2c1[nH]c1nc(Oc3cnc(C)nc3)nc(C3C[C@H]4CCN[C@H]4C3)c12` (some centres unmarked), the SA MIC in the experiment on S. aureus ATCC 13709 was less than 0.03 µg/mL. The Spn52 MIC with S. pneumoniae ATCC 51916 was less than 0.03 µg/mL. Further, in the experiment on P. aeruginosa ATCC 15692, the PA MIC amounted to 2 µg/mL.
Compound `CNc1cc(F)cc2c1[nH]c1nc(Oc3cnc(C)nc3)nc(N3C[C@H]4C[C@@H]3C[C@H]4N)c12` returned an SA MIC with S. aureus ATCC 13709 not above 0.016 µg/mL. The compound also showed a Spn52 MIC with S. pneumoniae ATCC 51916 not above 0.016 µg/mL. Besides, the PA MIC in the experiment on P. aeruginosa ATCC 15692 worked out at 1 µg/mL.
`CNc1cc(F)cc2c1[nH]c1nc(Oc3cnc4ccnn4c3)nc(N3C[C@H]4C[C@@H]3C[C@H]4N)c12`: in the experiment on S. aureus ATCC 13709, the SA MIC is not above 0.016 µg/mL. In the experiment on S. pneumoniae ATCC 51916, the Spn52 MIC is not above 0.001 µg/mL. Further, the PA MIC with P. aeruginosa ATCC 15692 is 0.5 µg/mL.
For the compound `CNc1cc(F)cc2c1[nH]c1nc(Oc3cnc4cccnc4c3)nc(N3CC4C(N)C4C3)c12` (centres unmarked) [Compound 4.035], the “MIC Sa” value against S. aureus ATCC 13709 (setting [4]) was not above 0.5 µg/mL. In addition, in the experiment with S. aureus ATCC 13709 (Sa = S. aureus), the “Sa MIC” value was not above 0.5 µg/mL. Also, the “Spn MIC” value with S. pneumoniae ATCC 51916 was not above 0.5 µg/mL. The “MIC Ec” value against E. coli ATCC 25922 (setting [5]) was not above 0.5 µg/mL. Also, the “Ec MIC” value with E. coli ATCC 25922 (setting [6]) is not above 0.5 µg/mL. Further, the “Pa MIC” value with P. aeruginosa ATCC 15692 was found to be 4 µg/mL. In addition, the “Ab MIC” value in the experiment on A. baumannii ATCC 19606 was not above 0.5 µg/mL. Also, the “Kpn MIC” value in experiment [1] stood at 2 µg/mL. Further, the “Yp MIC” value with Y. pestis CO92 pgm- was not above 0.5 µg/mL. The “Bt MIC” value in experiment [2] is not above 0.5 µg/mL. In [3], the “Ft MIC” value was found to be 1 µg/mL.
`CNc1cc(F)cc2c1[nH]c1nc(Oc3cnc(C)nc3)nc(N3CC4NCCC4(C)C3)c12` (centres unmarked) [Compound 4.157]: the “MIC Sa” value in the experiment on S. aureus ATCC 13709 (setting [4]) is not above 0.5 µg/mL. Further, the “Sa MIC” value with S. aureus ATCC 13709 (Sa = S. aureus) was not above 0.5 µg/mL. In addition, the “Spn MIC” value in the experiment with S. pneumoniae ATCC 51916 is not above 0.5 µg/mL. Moreover, the “MIC Ec” value in the experiment with E. coli ATCC 25922 (setting [5]) is not above 0.5 µg/mL. For the same compound, the “Ec MIC” value with E. coli ATCC 25922 (setting [6]) was not above 0.5 µg/mL. The “Pa MIC” value with P. aeruginosa ATCC 15692 was found to be 8 µg/mL. Besides, the “Ab MIC” value in the experiment on A. baumannii ATCC 19606 is not above 0.5 µg/mL. In [1], the “Kpn MIC” value came out at 4 µg/mL.
On to `CNc1cc(F)cc2c1[nH]c1nc(Oc3cnc(C(C)O)nc3)nc(N3CC4(CCC4N)C3)c12` (centres unmarked) [Compound 4.410], for which the “MIC Sa” value against S. aureus ATCC 13709 (setting [4]) was not above 0.5 µg/mL. Further, in the experiment with S. aureus ATCC 13709 (Sa = S. aureus), the “Sa MIC” value was not above 0.5 µg/mL. Moreover, the “Spn MIC” value in the experiment with S. pneumoniae ATCC 51916 was not above 0.5 µg/mL. Moreover, the “MIC Ec” value in the experiment on E. coli ATCC 25922 (setting [5]) is not above 0.5 µg/mL. Further, in the experiment with E. coli ATCC 25922 (setting [6]), the “Ec MIC” value is not above 0.5 µg/mL. For the same compound, the “Pa MIC” value with P. aeruginosa ATCC 15692 turned out to be 1 µg/mL. The “Ab MIC” value in the experiment with A. baumannii ATCC 19606 is 2 µg/mL. For the same compound, the “Kpn MIC” value in experiment [1] is 2 µg/mL.
Take `CNc1cc(F)cc2c1[nH]c1nc(Oc3ccc(C#N)nc3)nc(N3C[C@H]4C[C@@H]3C[C@H]4N)c12` [Compound 4.434]: the minimal inhibitory concentration (MIC) in the experiment with S. aureus ATCC 13709 (setting [7]) was not above 0.5 µg/mL; in the experiment on S. aureus ATCC 13709 (setting [8]), not above 0.5 µg/mL; in the experiment on S. pneumoniae ATCC 51916 it was not above 0.5 µg/mL; in the experiment with E. coli ATCC 25922 (setting [9]), not above 0.5 µg/mL; in the experiment on E. coli ATCC 25922 (setting [10]) it was not above 0.5 µg/mL; in the experiment with P. aeruginosa ATCC 15692 it was 1 µg/mL (≈ 2.25 µM). Also, the minimum inhibitory concentration (MIC) is not above 0.5 µg/mL in the experiment on A. baumannii ATCC 19606 and 1 µg/mL (≈ 2.25 µM) in experiment [1].
Consider `CNc1cc(F)c(C)c2c1[nH]c1nc(Oc3cnc(C)nc3)nc(N3CC4C[C@@H]3C[C@H]4N)c12` [Compound 6.280], for which the MIC is not above 0.5 µg/mL in the experiment on S. aureus ATCC 13709 (setting [7]); not above 0.5 µg/mL in the experiment with S. aureus ATCC 13709 (setting [8]); not above 0.5 µg/mL against S. pneumoniae ATCC 51916; not above 0.5 µg/mL in the experiment with E. coli ATCC 25922 (setting [9]); not above 0.5 µg/mL in the experiment on E. coli ATCC 25922 (setting [10]); 1 µg/mL (≈ 2.23 µM) against P. aeruginosa ATCC 15692. The MIC against A. baumannii ATCC 19606 was not above 0.5 µg/mL; in experiment [1] it was 2 µg/mL (≈ 4.46 µM).
With `CNc1cc(F)c(C)c2c1[nH]c1nc(Oc3cnc(C)nc3)nc(N3C[C@H](N)C4(CC4)C3)c12` [Compound 6.290], the minimal inhibitory concentration (MIC) with S. aureus ATCC 13709 (setting [7]) was not above 0.5 µg/mL; in the experiment with S. aureus ATCC 13709 (setting [8]), not above 0.5 µg/mL; in the experiment on S. pneumoniae ATCC 51916, not above 0.5 µg/mL; in the experiment on E. coli ATCC 25922 (setting [9]) it was not above 0.5 µg/mL; in the experiment with E. coli ATCC 25922 (setting [10]), not above 0.5 µg/mL; in the experiment with P. aeruginosa ATCC 15692 it was 2 µg/mL (≈ 4.46 µM). Further, the minimal inhibitory concentration (MIC) is not above 0.5 µg/mL with A. baumannii ATCC 19606 and 2 µg/mL (≈ 4.46 µM) in experiment [1].
`CNc1cc(F)cc2c1[nH]c1nc(Oc3cnc(C)nc3)nc(N3CCC(S(N)(=O)=O)C3)c12` (centres unmarked) [Compound 10.104]: in the experiment on S. aureus ATCC 13709 (Table 18, Sa), the MIC Sa is not above 0.5 µg/mL. The MIC Ec against E. coli ATCC 25922 (Table 18, Ec) was 8 µg/mL (≈ 16.9 µM).
Take `CNc1cc(F)cc2c1[nH]c1nc(Oc3cnc(CN)nc3)nc(N3CCC4(CC[C@H]4N)C3)c12` (some centres unmarked) [Compound 10.105]: the MIC Sa with S. aureus ATCC 13709 (Table 18, Sa) is not above 0.5 µg/mL. This compound returned an MIC Ec against E. coli ATCC 25922 (Table 18, Ec) of 1 µg/mL (≈ 2.16 µM).
As for `CNc1cc(F)c(F)c2c1[nH]c1nc(Oc3cnc(C)nc3)nc(N3CCC(S(N)(=O)=O)C3)c12` (centres unmarked) [Compound 10.106], in the experiment with S. aureus ATCC 13709 (Table 18, Sa), the MIC Sa was not above 0.5 µg/mL. The compound also showed an MIC Ec in the experiment on E. coli ATCC 25922 (Table 18, Ec) of 2 µg/mL (≈ 4.08 µM).
Compound `CNc1cc(F)c(F)c2c1[nH]c1nc(Oc3cnc(C)nc3)nc(N3CCOCC3)c12` [Compound 10.107] came in with an MIC Sa against S. aureus ATCC 13709 (Table 18, Sa) not above 0.5 µg/mL. This compound also registered an MIC Ec against E. coli ATCC 25922 (Table 18, Ec) not above 0.5 µg/mL.
Consider `CNc1cc(F)cc2c1[nH]c1nc(Oc3cnc4c(c3)C(=O)N(C)C4O)nc(N3C[C@H]4C[C@@H]3C[C@H]4N)c12` (some centres unmarked) [Compound 10.108], for which, in the experiment on S. aureus ATCC 13709 (Table 18, Sa), the MIC Sa was not above 0.5 µg/mL. In the experiment with E. coli ATCC 25922 (Table 18, Ec), this compound gave an MIC Ec of more than 16 µg/mL.
`CNc1cc(F)cc2c1[nH]c1nc(Oc3cnc4cc[s+]([O-])c4c3)nc(N3C[C@H]4C[C@@H]3C[C@H]4N)c12` (some centres unmarked) [Compound 10.109] yielded an MIC Sa in the experiment with S. aureus ATCC 13709 (Table 18, Sa) not above 0.5 µg/mL. The compound also registered an MIC Ec against E. coli ATCC 25922 (Table 18, Ec) not above 0.5 µg/mL.
`C=Cc1cc(F)c(F)c2c1[nH]c1nc(Oc3cnc(C)nc3)nc(N3C[C@H]4C[C@@H]3C[C@H]4N)c12` [Compound 10.110] came in with an MIC Sa in the experiment with S. aureus ATCC 13709 (Table 18, Sa) not above 0.5 µg/mL. Also, the MIC Ec with E. coli ATCC 25922 (Table 18, Ec) was not above 0.5 µg/mL.

The MIC is the lowest concentration found to suppress growth.
